pIC50: −log10 of the molar value. Like-named read-outs stand apart in the source and are kept apart here.

In US12258327B2, “5-membered heteroaryl-containing aminopyridine compounds as EGFR inhibitors” (YUHAN CORPORATION, priority 2021, dated 2025) one finds IC50 data, which are given here for 13 molecules.

The target in test [1] is EGFR del19/C797S (Homo sapiens, UniProt P00533, C797S/DEL746-750). The experiment in a line: Biochemical EGFR kinase assay (Lance Ultra TR-FRET), double mutant del19/C797S. The settings on record: for pIC50: read-out: IC50 del19/C797S, Km ATP. In outline:
(§1)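 Step 1: compound in kinase buffer, 0.003–10 μM. Step 2: kinase reaction 1 h at room temperature. Step 4: TR-FRET read at 615/665 nm; IC50 calculated.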

For test [2], the target named is EGFR L858R/T790M/C797S (Homo sapiens, UniProt P00533, C797S/L858R/T790M). The experiment in a line: Biochemical EGFR kinase assay (Lance Ultra TR-FRET), triple mutant L858R/T790M/C797S. The settings on record: for pIC50: read-out: IC50 L858R/T790M/C797S, Km ATP. The method, boiled down: as §1
Test [3] concerns the target EGFR L858R/C797S (Homo sapiens, UniProt P00533, C797S/L858R). As to the kind of experiment: Biochemical EGFR kinase assay (Lance Ultra TR-FRET), double mutant L858R/C797S. The settings on record: for pIC50: read-out: IC50 L858R/C797S, Km ATP. In outline:
as §1

In test [4] the target is EGFR del19/T790M/C797S (Homo sapiens, UniProt P00533, C797S/DEL746-750/T790M). The experiment in a line: Biochemical EGFR kinase assay (Lance Ultra TR-FRET), triple mutant del19/T790M/C797S. The settings on record: for pIC50: read-out: IC50 del19/T790M/C797S, Km ATP. The method, boiled down: as §1
Test [5] has as its target EGFR wildtype (WT) (Homo sapiens, UniProt P00533). The experiment in a line: Biochemical EGFR kinase assay (Lance Ultra TR-FRET), wildtype. The settings on record: for pIC50: read-out: IC50 WT, Km ATP. In outline: as §1
Where [6] appears, read: IC50 del19/C797S (nM) 100 μM ATP, 100 μM ATP.
Where [7] appears, read: IC50 L858R/T790M/C797S (nM) 100 μM ATP, 100 μM ATP.
The mark [8] stands for this setting: Km ATP, read-out: IC50 L858R/T790M/C797S (nM) Km ATP.
Setting [9] is: IC50 L858R/C797S (nM) 100 μM ATP, 100 μM ATP.
Setting [10] is: IC50 del19/T790M/C797S (nM) 100 μM ATP, 100 μM ATP.
Setting [11] is: Km ATP, read-out: IC50 del19/T790M/C797S (nM) Km ATP.
Where [12] appears, read: IC50 WT (nM) 100 μM ATP, 100 μM ATP.
The mark [13] stands for this setting: Km ATP, read-out: IC50 WT (nM) Km ATP.
[14] abbreviates: Km ATP, read-out: IC50 del19/C797S (nM) Km ATP.
The mark [15] stands for this setting: Km ATP, read-out: IC50 L858R/C797S (nM) Km ATP.

Chain of EGFR del19/T790M/C797S (P00533 with tags, fused parts or gaps DEL746-750/T790M/C797S): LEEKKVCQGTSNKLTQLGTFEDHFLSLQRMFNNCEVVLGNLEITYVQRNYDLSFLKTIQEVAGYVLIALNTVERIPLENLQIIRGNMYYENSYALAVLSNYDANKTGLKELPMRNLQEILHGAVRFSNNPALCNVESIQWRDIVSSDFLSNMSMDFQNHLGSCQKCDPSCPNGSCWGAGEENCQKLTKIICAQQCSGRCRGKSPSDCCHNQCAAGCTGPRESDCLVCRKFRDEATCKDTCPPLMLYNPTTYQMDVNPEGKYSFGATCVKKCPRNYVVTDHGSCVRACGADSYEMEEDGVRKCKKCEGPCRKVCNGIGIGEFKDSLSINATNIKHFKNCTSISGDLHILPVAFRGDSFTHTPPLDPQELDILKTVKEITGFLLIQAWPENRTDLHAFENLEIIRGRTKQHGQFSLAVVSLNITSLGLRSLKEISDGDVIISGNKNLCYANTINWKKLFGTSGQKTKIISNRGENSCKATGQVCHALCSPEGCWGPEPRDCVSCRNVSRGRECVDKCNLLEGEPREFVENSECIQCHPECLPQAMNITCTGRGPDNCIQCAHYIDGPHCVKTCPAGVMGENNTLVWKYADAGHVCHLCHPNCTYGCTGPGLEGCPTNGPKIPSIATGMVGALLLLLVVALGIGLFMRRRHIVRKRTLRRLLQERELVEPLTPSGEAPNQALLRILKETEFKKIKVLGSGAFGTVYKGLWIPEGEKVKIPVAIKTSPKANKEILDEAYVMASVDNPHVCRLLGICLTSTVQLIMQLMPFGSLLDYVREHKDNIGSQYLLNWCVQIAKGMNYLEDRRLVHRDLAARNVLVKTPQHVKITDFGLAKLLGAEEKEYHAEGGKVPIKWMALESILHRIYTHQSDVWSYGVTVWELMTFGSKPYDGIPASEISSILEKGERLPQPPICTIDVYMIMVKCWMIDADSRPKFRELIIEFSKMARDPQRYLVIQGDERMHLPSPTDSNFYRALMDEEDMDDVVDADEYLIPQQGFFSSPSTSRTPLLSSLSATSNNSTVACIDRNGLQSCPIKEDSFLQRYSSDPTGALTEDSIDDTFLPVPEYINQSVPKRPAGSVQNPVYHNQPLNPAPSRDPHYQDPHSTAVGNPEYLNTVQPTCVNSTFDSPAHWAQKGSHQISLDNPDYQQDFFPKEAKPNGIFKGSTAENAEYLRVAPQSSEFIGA
Chain of EGFR del19/C797S (P00533 with tags, fused parts or gaps DEL746-750/C797S): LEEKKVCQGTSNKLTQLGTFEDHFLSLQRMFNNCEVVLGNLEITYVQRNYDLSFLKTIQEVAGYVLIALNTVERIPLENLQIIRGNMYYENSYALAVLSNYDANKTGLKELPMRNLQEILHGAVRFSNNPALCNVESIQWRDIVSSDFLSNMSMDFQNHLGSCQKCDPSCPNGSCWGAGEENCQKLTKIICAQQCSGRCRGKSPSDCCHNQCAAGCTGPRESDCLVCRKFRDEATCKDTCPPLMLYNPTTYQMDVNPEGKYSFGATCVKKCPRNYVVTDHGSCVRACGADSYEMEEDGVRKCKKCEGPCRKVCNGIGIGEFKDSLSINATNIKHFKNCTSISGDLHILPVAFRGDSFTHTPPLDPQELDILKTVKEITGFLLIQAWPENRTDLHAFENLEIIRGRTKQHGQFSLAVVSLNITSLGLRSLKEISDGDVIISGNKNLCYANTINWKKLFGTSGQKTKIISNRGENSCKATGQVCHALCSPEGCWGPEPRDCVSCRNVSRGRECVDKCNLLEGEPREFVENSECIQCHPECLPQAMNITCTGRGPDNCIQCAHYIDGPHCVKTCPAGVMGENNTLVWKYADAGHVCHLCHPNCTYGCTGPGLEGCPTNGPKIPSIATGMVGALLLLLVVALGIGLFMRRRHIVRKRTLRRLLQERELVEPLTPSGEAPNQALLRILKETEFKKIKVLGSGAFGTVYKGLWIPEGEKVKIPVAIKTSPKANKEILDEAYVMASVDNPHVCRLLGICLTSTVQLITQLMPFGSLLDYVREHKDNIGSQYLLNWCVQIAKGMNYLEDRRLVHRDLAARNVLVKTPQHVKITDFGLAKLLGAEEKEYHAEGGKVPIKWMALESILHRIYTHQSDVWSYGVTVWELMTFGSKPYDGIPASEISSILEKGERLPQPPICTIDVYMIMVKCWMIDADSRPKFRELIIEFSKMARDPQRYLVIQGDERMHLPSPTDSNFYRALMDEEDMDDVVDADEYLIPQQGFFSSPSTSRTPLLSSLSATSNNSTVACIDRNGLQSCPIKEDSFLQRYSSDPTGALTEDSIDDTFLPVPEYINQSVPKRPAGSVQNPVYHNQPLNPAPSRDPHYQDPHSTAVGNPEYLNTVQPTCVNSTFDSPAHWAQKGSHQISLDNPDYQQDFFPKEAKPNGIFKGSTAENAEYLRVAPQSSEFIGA
Chain of EGFR L858R/T790M/C797S (P00533 25-1210 T790M/C797S/L858R): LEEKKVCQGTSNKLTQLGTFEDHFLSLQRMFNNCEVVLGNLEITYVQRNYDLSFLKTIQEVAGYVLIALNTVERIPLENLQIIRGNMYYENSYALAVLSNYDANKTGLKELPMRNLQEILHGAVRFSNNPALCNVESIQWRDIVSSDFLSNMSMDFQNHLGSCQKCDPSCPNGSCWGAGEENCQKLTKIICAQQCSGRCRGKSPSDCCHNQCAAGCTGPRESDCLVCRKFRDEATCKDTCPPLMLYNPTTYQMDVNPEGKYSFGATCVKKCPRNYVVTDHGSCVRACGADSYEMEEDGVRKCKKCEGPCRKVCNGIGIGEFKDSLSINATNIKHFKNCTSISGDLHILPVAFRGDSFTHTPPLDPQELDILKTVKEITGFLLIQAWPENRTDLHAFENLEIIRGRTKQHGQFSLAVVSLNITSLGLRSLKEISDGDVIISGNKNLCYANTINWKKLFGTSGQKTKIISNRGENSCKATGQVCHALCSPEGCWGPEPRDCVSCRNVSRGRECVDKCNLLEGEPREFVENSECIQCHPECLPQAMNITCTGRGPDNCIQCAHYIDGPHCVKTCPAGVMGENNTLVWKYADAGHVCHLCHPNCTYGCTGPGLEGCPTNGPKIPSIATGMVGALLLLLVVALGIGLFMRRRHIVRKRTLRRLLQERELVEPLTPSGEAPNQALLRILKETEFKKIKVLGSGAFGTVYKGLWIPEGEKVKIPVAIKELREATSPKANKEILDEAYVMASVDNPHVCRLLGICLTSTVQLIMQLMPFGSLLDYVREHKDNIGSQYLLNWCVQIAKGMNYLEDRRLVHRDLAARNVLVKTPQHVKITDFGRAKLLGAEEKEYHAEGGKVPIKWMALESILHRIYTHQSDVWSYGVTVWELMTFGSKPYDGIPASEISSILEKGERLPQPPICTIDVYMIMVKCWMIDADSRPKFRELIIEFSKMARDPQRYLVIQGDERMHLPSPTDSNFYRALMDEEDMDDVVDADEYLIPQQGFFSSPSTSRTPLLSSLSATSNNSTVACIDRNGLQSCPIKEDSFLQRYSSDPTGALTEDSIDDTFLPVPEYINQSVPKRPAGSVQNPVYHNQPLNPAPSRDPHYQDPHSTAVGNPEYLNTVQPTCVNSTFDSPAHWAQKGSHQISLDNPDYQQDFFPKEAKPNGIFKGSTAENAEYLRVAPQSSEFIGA
Chain of EGFR L858R/C797S (P00533 25-1210 C797S/L858R): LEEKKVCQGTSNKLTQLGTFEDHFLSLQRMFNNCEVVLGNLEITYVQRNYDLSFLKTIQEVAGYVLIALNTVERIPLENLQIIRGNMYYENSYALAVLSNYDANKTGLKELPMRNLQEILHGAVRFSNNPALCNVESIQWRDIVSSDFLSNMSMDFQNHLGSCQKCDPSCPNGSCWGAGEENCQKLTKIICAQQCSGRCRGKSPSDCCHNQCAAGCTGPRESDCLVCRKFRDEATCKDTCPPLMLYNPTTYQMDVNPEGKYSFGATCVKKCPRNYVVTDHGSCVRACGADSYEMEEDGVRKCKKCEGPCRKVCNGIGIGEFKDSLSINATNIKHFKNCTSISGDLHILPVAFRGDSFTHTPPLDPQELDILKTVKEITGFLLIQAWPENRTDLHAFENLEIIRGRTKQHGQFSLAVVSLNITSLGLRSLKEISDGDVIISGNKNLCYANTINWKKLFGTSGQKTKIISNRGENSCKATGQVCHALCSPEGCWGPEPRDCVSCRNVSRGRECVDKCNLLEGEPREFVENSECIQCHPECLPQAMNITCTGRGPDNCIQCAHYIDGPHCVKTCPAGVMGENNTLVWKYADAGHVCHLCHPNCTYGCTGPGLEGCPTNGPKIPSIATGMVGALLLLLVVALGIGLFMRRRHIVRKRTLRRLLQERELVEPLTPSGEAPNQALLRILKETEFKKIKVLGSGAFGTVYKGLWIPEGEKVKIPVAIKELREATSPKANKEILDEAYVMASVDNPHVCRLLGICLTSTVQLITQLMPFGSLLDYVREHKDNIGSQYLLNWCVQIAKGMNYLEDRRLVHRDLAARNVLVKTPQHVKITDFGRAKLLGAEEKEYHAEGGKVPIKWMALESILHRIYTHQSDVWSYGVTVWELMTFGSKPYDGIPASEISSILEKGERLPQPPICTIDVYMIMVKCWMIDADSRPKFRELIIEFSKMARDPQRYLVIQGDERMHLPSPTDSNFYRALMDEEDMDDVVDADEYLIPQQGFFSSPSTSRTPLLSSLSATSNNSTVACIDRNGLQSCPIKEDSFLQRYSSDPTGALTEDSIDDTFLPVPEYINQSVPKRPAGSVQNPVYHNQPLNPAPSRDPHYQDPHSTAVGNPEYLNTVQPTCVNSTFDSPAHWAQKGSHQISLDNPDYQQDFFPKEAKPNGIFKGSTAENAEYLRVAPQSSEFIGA

With `CN(CC(F)F)C(=O)[C@H]1CC[C@@H](Nc2cc(Nc3ccnc(-c4cnn(S(=O)(=O)C5CC5)c4)n3)ncc2-c2ccn(C(F)F)n2)CC1` [Example 204, (1s,4s)-4-((2-((2-(1-(Cyclopropylsulfonyl)-1H-pyrazol-4-yl)pyrimidin-4-yl)amino)-5-(1-(difluoromethyl)-1H-pyrazol-3-yl)pyridin-4-yl)amino)-N-(2,2-difluoroethyl)-N-methylcyclohexane-1-carboxamide], the IC50 was found to be 4 nM in test [1] (setting [6]); 0.8 nM in test [2] (setting [7]); 0.4 nM in test [2] (setting [8]); 36.1 nM in test [3] (setting [9]); 0.9 nM in test [4] (setting [10]); 0.9 nM in test [4] (setting [11]). Also, the IC50 is > 10000 nM in test [5] (setting [12]) and 9.5 nM in test [5] (setting [13]).
On to `CN(C)CC1(C)CCC(Nc2cc(Nc3ccnc(-c4cnn(S(=O)(=O)C5CC5)c4)n3)ncc2-c2ccn(C)n2)CC1` (centres unmarked) [Example 238, N^2-(2-(1-(Cyclopropylsulfonyl)-1H-pyrazol-4-yl)pyrimidin-4-yl)-N^4-(4-((dimethylamino)methyl)-4-methylcyclohexyl)-5-(1-methyl-1H-pyrazol-3-yl)pyridine-2,4-diamine], for which the IC50 was 4.9 nM in test [1] (setting [6]); 2 nM in test [1] (setting [14]); 0.6 nM in test [2] (setting [7]); 0.4 nM in test [2] (setting [8]); 178 nM in test [3] (setting [9]); 7.1 nM in test [3] (setting [15]). For the same molecule, the IC50 in test [4] (setting [10]) amounted to 0.6 nM; in test [4] (setting [11]) it was 0.8 nM; in test [5] (setting [12]) it was 3600 nM; in test [5] (setting [13]), 7.5 nM.
As to `O=S(=O)(C1CC1)n1cc(-c2nccc(Nc3cc(N[C@@H]4CCC[C@H](O)C4)c(-c4csc(C(F)(F)F)n4)cn3)n2)cn1` [Example 96, (1S,3R)-3-((2-((2-(1-(Cyclopropylsulfonyl)-1H-pyrazol-4-yl)pyrimidin-4-yl)amino)-5-(2-(trifluoromethyl)thiazol-4-yl)pyridin-4-yl)amino)cyclohexan-1-ol], the IC50 in test [1] (setting [6]) came to 159 nM; in test [1] (setting [14]), 89.1 nM; in test [2] (setting [7]), 6.2 nM; in test [2] (setting [8]), 2 nM; in test [3] (setting [9]) it was 690 nM; in test [3] (setting [15]) it was 22.7 nM. The IC50 in test [4] (setting [10]) is 3.5 nM; in test [4] (setting [11]) it was 2.7 nM; in test [5] (setting [12]), > 10000 nM; in test [5] (setting [13]), 418 nM.
As to `Cn1ccc(-c2cnc(Nc3ccnc(-c4cnn(S(=O)(=O)C5CC5)c4)n3)cc2N[C@H]2CC[C@@H](N(C)C)CC2)n1` [Example 124, N^2-(2-(1-(Cyclopropylsulfonyl)-1H-pyrazol-4-yl)pyrimidin-4-yl)-N^4-((1s,4s)-4-(dimethylamino)cyclohexyl)-5-(1-methyl-1H-pyrazol-3-yl)pyridine-2,4-diamine], the IC50 in test [1] (setting [6]) was found to be 0.6 nM; in test [1] (setting [14]), 0.4 nM; in test [2] (setting [7]), 0.1 nM; in test [2] (setting [8]), 0.1 nM; in test [3] (setting [9]), 9.6 nM; in test [3] (setting [15]), 0.5 nM. Besides, the IC50 in test [4] (setting [10]) worked out at 0.2 nM; in test [4] (setting [11]), 0.1 nM; in test [5] (setting [12]) it was 801 nM; in test [5] (setting [13]), 1.1 nM.
For the molecule `CN(C)C[C@H]1CC[C@H](CNc2cc(Nc3ccnc(-c4cnn(S(=O)(=O)C5CC5)c4)n3)ncc2-c2ccn(C(F)F)n2)CC1` [Example 100, N^2-(2-(1-(Cyclopropylsulfonyl)-1H-pyrazol-4-yl)pyrimidin-4-yl)-5-(1-(difluoromethyl)-1H-pyrazol-3-yl)-N^4-(((1r,4r)-4-((dimethylamino)methyl)cyclohexyl)methyl)pyridine-2,4-diamine], the IC50 was 0.4 nM in test [1] (setting [6]); 0.5 nM in test [1] (setting [14]); 0.5 nM in test [2] (setting [7]); 0.3 nM in test [2] (setting [8]); 1.4 nM in test [3] (setting [9]); 0.3 nM in test [3] (setting [15]). The IC50 is 0.6 nM in test [4] (setting [10]), 0.5 nM in test [4] (setting [11]), 582 nM in test [5] (setting [12]) and 1 nM in test [5] (setting [13]).
Take `O=S(=O)(C1CC1)n1cc(-c2nccc(Nc3cc(N[C@H]4CC[C@@H](F)CC4)c(-c4ccn(CC(F)(F)F)n4)cn3)n2)cn1` [Example 305, N^2-(2-(1-(Cyclopropylsulfonyl)-1H-pyrazol-4-yl)pyrimidin-4-yl)-N^4-((1s,4s)-4-fluorocyclohexyl)-5-(1-(2,2,2-trifluoroethyl)-1H-pyrazol-3-yl)pyridine-2,4-diamine]: the IC50 in test [1] (setting [14]) came out at 67.7 nM; in test [2] (setting [8]), 5.3 nM; in test [3] (setting [15]), 12 nM; in test [4] (setting [11]), 8 nM; in test [5] (setting [13]), 853 nM.
Turning to `O=S(=O)(C1CC1)n1cc(-c2nccc(Nc3cc(N[C@H]4CCC[C@H](O)C4)c(-c4ccn(C(F)F)n4)cn3)n2)cn1` [Example 21, (1S,3S)-3-((2-((2-(1-(Cyclopropylsulfonyl)-1H-pyrazol-4-yl)pyrimidin-4-yl)amino)-5-(1-(difluoromethyl)-1H-pyrazol-3-yl)pyridin-4-yl)amino)cyclohexan-1-ol], the IC50 is 0.7 nM in test [1] (setting [6]); 0.3 nM in test [1] (setting [14]); 0.9 nM in test [2] (setting [7]); 0.2 nM in test [2] (setting [8]); 8.9 nM in test [3] (setting [9]); 0.9 nM in test [3] (setting [15]). Also, the IC50 in test [4] (setting [10]) turned out to be 1.3 nM; in test [4] (setting [11]) it was 0.3 nM; in test [5] (setting [12]), 5010 nM; in test [5] (setting [13]), 5.4 nM.
On to `Cn1nc(-c2cnc(Nc3ccnc(-c4cnn(S(=O)(=O)C5CC5)c4)n3)cc2N[C@H]2CC[C@@](C)(O)CC2)cc1C(F)(F)F` [Example 252, (1s,4s)-4-((2-((2-(1-(Cyclopropylsulfonyl)-1H-pyrazol-4-yl)pyrimidin-4-yl)amino)-5-(1-methyl-5-(trifluoromethyl)-1H-pyrazol-3-yl)pyridin-4-yl)amino)-1-methylcyclohexan-1-ol], for which the IC50 in test [1] (setting [14]) is 1.2 nM; in test [2] (setting [8]), 0.8 nM; in test [3] (setting [9]), 9.8 nM; in test [3] (setting [15]), 4.3 nM; in test [4] (setting [10]) it was 0.7 nM; in test [5] (setting [12]), > 10000 nM. In addition, the IC50 in test [5] (setting [13]) came out at 3 nM.
For the molecule `COc1ncc(-c2nccc(Nc3cc(N[C@H]4CC[C@@](C)(O)CC4)c(-c4ccn(C(F)F)n4)cn3)n2)cc1F` [Example 178, (1s,4s)-4-((5-(1-(Difluoromethyl)-1H-pyrazol-3-yl)-2-((2-(5-fluoro-6-methoxypyridin-3-yl)pyrimidin-4-yl)amino)pyridin-4-yl)amino)-1-methylcyclohexan-1-ol], the IC50 in test [1] (setting [14]) came out at 102 nM; in test [2] (setting [8]), 16.8 nM; in test [3] (setting [15]) it was 3 nM; in test [4] (setting [11]), 46.2 nM; in test [5] (setting [13]), 2110 nM.
In the case of `CC(C)Nc1cc(Nc2ccnc(-c3cnn(S(=O)(=O)C4CC4)c3)n2)ncc1-c1ccn(C(F)F)n1` [Example 144, N^2-(2-(1-(Cyclopropylsulfonyl)-1H-pyrazol-4-yl)pyrimidin-4-yl)-5-(1-(difluoromethyl)-1H-pyrazol-3-yl)-N^4-isopropylpyridine-2,4-diamine], the IC50 in test [1] (setting [14]) was found to be 24 nM; in test [2] (setting [8]) it was 0.7 nM; in test [3] (setting [15]), 12.5 nM; in test [4] (setting [11]), 1.2 nM; in test [5] (setting [13]), 687 nM.
Consider `Cc1nn(CC(F)(F)F)cc1-c1cc(Nc2ncc(-c3ccn(CC(F)(F)F)n3)c(N[C@H]3CC[C@@](C)(O)CC3)n2)ccn1` [Example 370, (1s,4s)-1-Methyl-4-((2-((2-(3-methyl-1-(2,2,2-trifluoroethyl)-1H-pyrazol-4-yl)pyridin-4-yl)amino)-5-(1-(2,2,2-trifluoroethyl)-1H-pyrazol-3-yl)pyrimidin-4-yl)amino)cyclohexan-1-ol], for which the pIC50 in test [1] (Km ATP) is 7.76; in test [2] (Km ATP), 8.92; in test [3] (Km ATP) it was 8.08; in test [4] (Km ATP), 8.47; in test [5] (Km ATP), 6.83.
Take `C[C@]1(O)CC[C@@H](Nc2cc(Nc3ccnc(-c4ccc(F)nc4F)n3)ncc2-c2ccn(C(F)F)n2)CC1` [Example 170, (1s,4s)-4-((5-(1-(Difluoromethyl)-1H-pyrazol-3-yl)-2-((2-(2,6-difluoropyridin-3-yl)pyrimidin-4-yl)amino)pyridin-4-yl)amino)-1-methylcyclohexan-1-ol]: the IC50 in test [1] (setting [14]) worked out at 1340 nM; in test [2] (setting [8]), 16.9 nM; in test [3] (setting [15]), 814 nM; in test [4] (setting [11]), 49.7 nM; in test [5] (setting [13]), 1980 nM.
For `O=S(=O)(C1CC1)n1cc(-c2ncc(F)c(Nc3cc(N[C@H]4CC[C@@H](CCO)CC4)c(-c4ccn(CC(F)F)n4)cn3)n2)cn1` [Example 336, 2-((1s,4s)-4-((2-((2-(1-(Cyclopropylsulfonyl)-1H-pyrazol-4-yl)-5-fluoropyrimidin-4-yl)amino)-5-(1-(2,2-difluoroethyl)-1H-pyrazol-3-yl)pyridin-4-yl)amino)cyclohexyl)ethan-1-ol], the pIC50 in test [1] (Km ATP) is 7.43; in test [2] (Km ATP) it was 8.96; in test [3] (Km ATP) it was 7.69; in test [4] (Km ATP), 9.00; in test [5] (Km ATP) it was 5.59.
